According to patent US10238670B2, “9-aminomethyl minocycline compounds and methods of use thereof in urinary tract infection (UTI) treatment” (Paratek Pharmaceuticals, Inc., priority 2016, dated 2019):
Where two headings read alike, the source gives them in different places.

Tests used:
Assay in all cases: In vitro MIC, 2010 surveillance isolates
Acinetobacter spp = type: cell-based; conditions: for % R (resistance): CLSI breakpoints
E. faecium VS = type: cell-based
E. coli ESBL− = type: cell-based, Escherichia coli
MS CoNS = type: cell-based, Coagulase-Negative Staphylococcus
E. faecalis VS = type: cell-based
E. faecalis VNS = type: cell-based
E. cloacae CeftazR = type: cell-based
E. coli ESBL+ = type: cell-based, Escherichia coli
K. oxytoca = type: cell-based
K. pneumoniae ESBL+ = type: cell-based, Klebsiella pneumoniae
Enterobacter spp = type: cell-based
K. pneumoniae ESBL− = type: cell-based, Klebsiella pneumoniae
E. faecium VNS = type: cell-based
A. baumanii = type: cell-based
E. cloacae CeftazS = type: cell-based
MSSA = type: cell-based
MR CoNS = type: cell-based, Coagulase-Negative Staphylococcus
MRSA = type: cell-based

CO/N=C(\C(=O)N[C@@H]1C(=O)N2C(C(=O)O)=C(CSc3nc(=O)c(=O)[nH]n3C)CS[C@H]12)c1csc(N)n1 [Ceftriaxone]
0.1%: % R (resistance) (MSSA; N America, CLSI breakpoints)
>8: range of MICs (N <10, shown instead of MIC90) (E. faecalis VNS; Asia/Pac, N=1) | range of MICs (N <10, shown instead of MIC90) (E. faecalis VNS; Europe, N=8) | range of MICs (N <10, shown instead of MIC90) (E. faecalis VNS; L. Amer, N=7)
3.3%: % R (resistance) (E. cloacae CeftazS; N America, CLSI breakpoints)
39%: % R (resistance) (Enterobacter spp; Europe, Eucast breakpoints)
95%: resistance rates for ESBL-producing clinical isolates (E. coli ESBL+; E. coli)
> 8 µg/mL: MIC90 (Acinetobacter spp; Europe, N=43) | MIC90 (Acinetobacter spp; N America, N=42) | MIC90 (E. faecium VS; Asia/Pac, N=106) | MIC90 (E. faecium VS; Europe, N=303) | MIC90 (E. faecium VS; L. Amer, N=51) | MIC90 (E. faecium VS; N America, N=115) | MIC90 (E. faecalis VS; Asia/Pac, N=214) | MIC90 (E. faecalis VS; Europe, N=669) | MIC90 (E. faecalis VS; L. Amer, N=290) | MIC90 (E. faecalis VS; N America, N=863) | MIC90 (E. faecalis VNS; N America, N=38) | MIC90 (E. cloacae CeftazR; Asia/Pac, N=63) | MIC90 (E. cloacae CeftazR; Europe, N=72) | MIC90 (E. cloacae CeftazR; L. Amer, N=42) | MIC90 (E. cloacae CeftazR; N America, N=77) | MIC90 (E. coli ESBL+; Asia/Pac, N=219) | MIC90 (E. coli ESBL+; Escherichia coli, ESBL-producing E. coli, read-out: MIC90) | MIC90 (E. coli ESBL+; Europe, N=274) | MIC90 (E. coli ESBL+; L. Amer, N=168) | MIC90 (E. coli ESBL+; N America, N=134) | MIC90 (K. oxytoca; Asia/Pac, N=17) | MIC90 (K. oxytoca; Europe, N=158) | MIC90 (K. oxytoca; L. Amer, N=25) | MIC90 (K. pneumoniae ESBL+; Asia/Pac, N=124) | MIC90 (K. pneumoniae ESBL+; Europe, N=151) | MIC90 (K. pneumoniae ESBL+; L. Amer, N=209) | MIC90 (K. pneumoniae ESBL+; N America, N=108) | MIC90 (Enterobacter spp; Asia/Pac, N=52) | MIC90 (Enterobacter spp; Europe, N=82) | MIC90 (Enterobacter spp; L. Amer, N=42) | MIC90 (Enterobacter spp; N America, N=101) | MIC90 (E. faecium VNS; Asia/Pac, N=24) | MIC90 (E. faecium VNS; Europe, N=71) | MIC90 (E. faecium VNS; L. Amer, N=41) | MIC90 (E. faecium VNS; N America, N=478) | MIC90 (A. baumanii; Asia/Pac, N=275) | MIC90 (A. baumanii; Europe, N=145) | MIC90 (A. baumanii; L. Amer, N=275) | MIC90 (A. baumanii; N America, N=154) | MIC90 (E. cloacae CeftazS; L. Amer, N=57) | MIC90 (MR CoNS; Asia/Pac, N=77) | MIC90 (MR CoNS; Europe, N=510) | MIC90 (MR CoNS; L. Amer, N=301) | MIC90 (MR CoNS; N America, N=461) | MIC90 (MRSA; Asia/Pac, N=428) | MIC90 (MRSA; Europe, N=750) | MIC90 (MRSA; L. Amer, N=506) | MIC90 (MRSA; N America, N=2508)
7.7%: % R (resistance) (E. cloacae CeftazS; Europe, Eucast breakpoints)
100%: % R (resistance) (E. cloacae CeftazR; Asia/Pac, Eucast breakpoints) | % R (resistance) (E. cloacae CeftazR; Europe, Eucast breakpoints) | % R (resistance) (E. cloacae CeftazR; L. Amer, CLSI breakpoints) | % R (resistance) (E. cloacae CeftazR; N America, CLSI breakpoints) | % R (resistance) (MR CoNS; Asia/Pac, Eucast breakpoints) | % R (resistance) (MR CoNS; Europe, Eucast breakpoints) | % R (resistance) (MR CoNS; L. Amer, CLSI breakpoints) | % R (resistance) (MR CoNS; N America, CLSI breakpoints) | % R (resistance) (MRSA; Asia/Pac, Eucast breakpoints) | % R (resistance) (MRSA; Europe, Eucast breakpoints) | % R (resistance) (MRSA; L. Amer, CLSI breakpoints) | % R (resistance) (MRSA; N America, CLSI breakpoints)
2 µg/mL: MIC90 (E. cloacae CeftazS; Asia/Pac, N=100) | MIC90 (E. cloacae CeftazS; Europe, N=183)
93.5%: % R (resistance) (K. pneumoniae ESBL+; Asia/Pac, Eucast breakpoints)
40%: % R (resistance) (K. oxytoca; L. Amer, CLSI breakpoints)
4 µg/mL: MIC90 (MS CoNS; Europe, N=185) | MIC90 (MS CoNS; L. Amer, N=67) | MIC90 (MS CoNS; N America, N=191) | MIC90 (K. oxytoca; N America, N=177) | MIC90 (MSSA; Asia/Pac, N=641) | MIC90 (MSSA; Europe, N=2109) | MIC90 (MSSA; L. Amer, N=590) | MIC90 (MSSA; N America, N=2373)
29.4%: % R (resistance) (K. oxytoca; Asia/Pac, Eucast breakpoints)
17.7%: % R (resistance) (K. oxytoca; Europe, Eucast breakpoints)
24.8%: % R (resistance) (Enterobacter spp; N America, CLSI breakpoints)
95.4%: % R (resistance) (K. pneumoniae ESBL+; N America, CLSI breakpoints)
1 µg/mL: MIC90 (E. cloacae CeftazS; N America, N=210)
24.6%: % R (resistance) (E. cloacae CeftazS; L. Amer, CLSI breakpoints)
85.8%: % R (resistance) (E. coli ESBL+; N America, CLSI breakpoints)
94.2%: % R (resistance) (E. coli ESBL+; Europe, Eucast breakpoints)
10.2%: % R (resistance) (K. oxytoca; N America, CLSI breakpoints)
30.8%: % R (resistance) (Enterobacter spp; Asia/Pac, Eucast breakpoints)
0%: % R (resistance) (Acinetobacter spp; L. Amer) | % R (resistance) (Acinetobacter spp; N America) | % R (resistance) (E. coli ESBL−; Asia/Pac, Eucast breakpoints) | % R (resistance) (E. coli ESBL−; Europe, Eucast breakpoints) | % R (resistance) (E. coli ESBL−; L. Amer, CLSI breakpoints) | % R (resistance) (E. coli ESBL−; N America, CLSI breakpoints) | % R (resistance) (MS CoNS; Asia/Pac, Eucast breakpoints) | % R (resistance) (MS CoNS; Europe, Eucast breakpoints) | % R (resistance) (MS CoNS; L. Amer, CLSI breakpoints) | % R (resistance) (MS CoNS; N America, CLSI breakpoints) | % R (resistance) (K. pneumoniae ESBL−; Asia/Pac, Eucast breakpoints) | % R (resistance) (K. pneumoniae ESBL−; Europe, Eucast breakpoints) | % R (resistance) (K. pneumoniae ESBL−; L. Amer, CLSI breakpoints) | % R (resistance) (K. pneumoniae ESBL−; N America, CLSI breakpoints) | % R (resistance) (MSSA; Asia/Pac, Eucast breakpoints) | % R (resistance) (MSSA; Europe, Eucast breakpoints) | % R (resistance) (MSSA; L. Amer, CLSI breakpoints)
8 µg/mL: MIC90 (MS CoNS; Asia/Pac, N=18)
97.6%: % R (resistance) (E. coli ESBL+; L. Amer, CLSI breakpoints)
99.5%: % R (resistance) (E. coli ESBL+; Asia/Pac, Eucast breakpoints) | % R (resistance) (K. pneumoniae ESBL+; L. Amer, CLSI breakpoints)
94.7%: % R (resistance) (K. pneumoniae ESBL+; Europe, Eucast breakpoints)
0.12 µg/mL: MIC90 (E. coli ESBL−; Asia/Pac, N=282) | MIC90 (E. coli ESBL−; Europe, N=1533) | MIC90 (E. coli ESBL−; L. Amer, N=389) | MIC90 (E. coli ESBL−; N America, N=1172) | MIC90 (K. pneumoniae ESBL−; Asia/Pac, N=189) | MIC90 (K. pneumoniae ESBL−; Europe, N=361) | MIC90 (K. pneumoniae ESBL−; L. Amer, N=160) | MIC90 (K. pneumoniae ESBL−; N America, N=671)
5%: % R (resistance) (E. cloacae CeftazS; Asia/Pac, Eucast breakpoints)
31%: % R (resistance) (Enterobacter spp; L. Amer, CLSI breakpoints)
